The target in data set [1] is T1, N-cadherin (Homo sapiens, UniProt P19022).
T1 sequence (P19022 160-906): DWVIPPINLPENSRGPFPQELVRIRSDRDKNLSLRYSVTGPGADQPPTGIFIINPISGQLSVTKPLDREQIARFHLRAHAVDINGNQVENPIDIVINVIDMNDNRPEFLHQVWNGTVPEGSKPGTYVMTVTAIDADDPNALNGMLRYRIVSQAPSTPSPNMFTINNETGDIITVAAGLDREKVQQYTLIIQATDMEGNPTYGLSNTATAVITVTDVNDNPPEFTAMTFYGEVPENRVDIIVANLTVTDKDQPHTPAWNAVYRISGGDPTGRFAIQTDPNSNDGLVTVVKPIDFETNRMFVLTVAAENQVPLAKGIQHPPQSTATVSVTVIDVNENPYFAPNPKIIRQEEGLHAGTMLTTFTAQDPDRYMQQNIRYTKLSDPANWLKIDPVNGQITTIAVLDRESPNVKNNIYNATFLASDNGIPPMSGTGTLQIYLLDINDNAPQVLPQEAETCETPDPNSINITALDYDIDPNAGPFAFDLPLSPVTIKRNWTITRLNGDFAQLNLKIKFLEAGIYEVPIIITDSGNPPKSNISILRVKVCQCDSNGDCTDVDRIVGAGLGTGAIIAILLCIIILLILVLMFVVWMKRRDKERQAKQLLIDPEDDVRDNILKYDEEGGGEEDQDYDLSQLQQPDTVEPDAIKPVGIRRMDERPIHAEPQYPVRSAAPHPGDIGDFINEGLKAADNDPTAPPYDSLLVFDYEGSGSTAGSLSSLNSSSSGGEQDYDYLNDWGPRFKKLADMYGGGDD
Conditions: cited from earlier work.

Data set [2] has as its system PC-3. Description: Cytotoxicity, MTT assay, PC-3. In kind it is cell-based, human. An outline of the steps:
(§1)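 Peptide concentrations reached 100 μM. Both an MTT cytotoxicity read-out and ^3H-thymidine incorporation for proliferation were used.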
For orientation: Tetrazolium assays rely on reduction of a dye to a coloured formazan, in cell work by metabolically active cells.

Data set [3] addresses T2, N-cadherin (Gallus gallus, UniProt P10288).
T2 construct: expressed in transfected cells; host or cells: 3T3 fibroblasts (monolayer)
T2 sequence (P10288 165-912): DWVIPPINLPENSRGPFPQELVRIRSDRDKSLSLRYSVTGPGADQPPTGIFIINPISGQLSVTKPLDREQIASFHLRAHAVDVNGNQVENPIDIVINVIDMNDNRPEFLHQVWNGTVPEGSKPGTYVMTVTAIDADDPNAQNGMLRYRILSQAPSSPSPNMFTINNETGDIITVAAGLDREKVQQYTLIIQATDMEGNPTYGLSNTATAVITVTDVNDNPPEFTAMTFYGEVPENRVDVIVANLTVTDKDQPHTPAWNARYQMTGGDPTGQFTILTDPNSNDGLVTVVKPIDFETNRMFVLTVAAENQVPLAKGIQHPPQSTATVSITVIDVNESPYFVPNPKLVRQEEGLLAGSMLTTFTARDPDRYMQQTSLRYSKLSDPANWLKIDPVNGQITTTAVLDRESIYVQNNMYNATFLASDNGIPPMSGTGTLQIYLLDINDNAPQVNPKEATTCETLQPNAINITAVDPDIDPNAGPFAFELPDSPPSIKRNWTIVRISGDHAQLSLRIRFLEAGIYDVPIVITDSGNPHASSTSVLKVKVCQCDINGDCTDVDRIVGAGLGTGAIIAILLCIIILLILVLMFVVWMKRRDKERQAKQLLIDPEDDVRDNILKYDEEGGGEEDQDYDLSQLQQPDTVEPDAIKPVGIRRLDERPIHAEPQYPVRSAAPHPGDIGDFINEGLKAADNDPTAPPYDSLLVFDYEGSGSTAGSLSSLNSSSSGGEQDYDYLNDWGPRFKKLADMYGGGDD
Description: Neurite outgrowth inhibition, rat neurons (Example 21). The class given is cell-based. As to conditions: read-out: % Inhibition of neurite outgrowth; 250 μg/mL.

The subject of data set [4] is MDA-MB231. In words: Cytotoxicity, MTT assay, MDA-MB231. The class given is cell-based, human. An outline of the steps:
as §1

The next data set in a line: Solubility in RPMI. The class given is physicochemical. Conditions: 1 mM.
Data set [5] deals with MDA-MB231. The class given is cell-based, human. As to conditions: 3 h. An outline of the steps: as §1
A further data set deals with HUVEC. The class given is cell-based, human. Conditions: 3 h. An outline of the steps:
as §1

In the next data set the test system is IAFp2. In kind it is cell-based, human. As to conditions: 3 h. An outline of the steps: as §1
The test system of a further data set is HMVEC. In kind it is cell-based, human. Conditions: 3 h. An outline of the steps: as §1
Another data set concerns WI-38. In kind it is cell-based, human. As to conditions: 3 h. An outline of the steps: as §1
Data set [6] concerns PC-3. In kind it is cell-based, human. Conditions: 3 h. An outline of the steps:
as §1

Like-named read-outs stand apart in the source and are kept apart here. Positions of bridges follow the written chain, without caps; N, C: chain ends. Residues, ends and D or L forms follow the SMILES beside them.

As to “N—AC-CHAVDINGHAVDIC-NH2: cyclic peptide presenting two HAV motifs in an antiparallel fashion (Williams et al. 2002) (Ac-CHAVDINGHAVDIC-NH2; disulfide 1-14 (inferred))”, the “stimulation of neurite outgrowth” value with N-cadherin [1] is “capable of stimulating neurite outgrowth”.
With `CC(=O)N[C@H]1CSSC[C@@H](C(N)=O)NC(=O)[C@H](CO)NC(=O)[C@H](CO)NC(=O)[C@H](C(C)C)NC(=O)[C@H](C)NC(=O)[C@H](Cc2c[nH]cn2)NC(=O)[C@H](CO)NC1=O` (Ac-CSHAVSSC-NH2; disulfide 1-8 (inferred)), the IC50 in the data set on PC-3 [2] is over 100 µM; in the data set with MDA-MB231 [4] it was over 100 µM; with MDA-MB231 [5], 76 µM; in the data set with HUVEC it was 69 µM; in the data set with IAFp2, over 100 µM; in the data set on HMVEC, 70 µM. Further, the IC50 in the data set on WI-38 and in the data set with PC-3 [6] was over 100 µM throughout. The inhibition at 250 µg/mL at N-cadherin [3] is 0%. Further, in the data set “Solubility in RPMI”, the “solubility in RPMI” value is reported as “*Incompletely soluble in RPMI at 1 mM”.

For orientation: IC50 means the concentration at which inhibition is half-maximal. Low readings indicate higher potency, high ones lower potency. The inhibition is the percentage by which the read-out fell short of the control.

The values are drawn from patent US20040106545A1, “Compounds and methods for modulating cell adhesion” (priority 1996, published 2004).
